Assay results: paper PMC3556224 (Journal of natural products, 2013)

Assays:
hAChE = hAChE (Homo sapiens, UniProt P22303); assay: Inhibition of hAChE with acetylthiocholine as substrate; type: biochemical
hBChE = hBChE (Homo sapiens, UniProt P06276); assay: Inhibition of hBChE with butyrylthiocholine as substrate; type: biochemical
hiCE = target: T1, hiCE (Homo sapiens, UniProt O00748); type: cell-based; conditions: 4-MUA, U373MG cells
T1 sequence (O00748 27-559): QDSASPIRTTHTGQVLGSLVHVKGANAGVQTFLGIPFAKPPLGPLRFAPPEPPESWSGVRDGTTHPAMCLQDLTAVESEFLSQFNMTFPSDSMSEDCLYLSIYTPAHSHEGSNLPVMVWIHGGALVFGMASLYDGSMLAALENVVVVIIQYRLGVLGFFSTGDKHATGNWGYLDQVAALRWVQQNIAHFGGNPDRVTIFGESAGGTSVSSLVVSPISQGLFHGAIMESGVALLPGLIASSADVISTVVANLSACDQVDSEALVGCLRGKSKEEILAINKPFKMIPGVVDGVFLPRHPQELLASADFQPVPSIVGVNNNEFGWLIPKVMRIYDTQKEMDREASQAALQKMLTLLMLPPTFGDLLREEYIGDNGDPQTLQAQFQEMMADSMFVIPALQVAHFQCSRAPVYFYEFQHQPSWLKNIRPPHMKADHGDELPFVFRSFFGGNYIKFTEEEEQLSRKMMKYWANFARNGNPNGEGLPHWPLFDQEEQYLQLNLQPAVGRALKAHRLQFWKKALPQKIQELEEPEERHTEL

hAChE, sequence (P22303 32-614): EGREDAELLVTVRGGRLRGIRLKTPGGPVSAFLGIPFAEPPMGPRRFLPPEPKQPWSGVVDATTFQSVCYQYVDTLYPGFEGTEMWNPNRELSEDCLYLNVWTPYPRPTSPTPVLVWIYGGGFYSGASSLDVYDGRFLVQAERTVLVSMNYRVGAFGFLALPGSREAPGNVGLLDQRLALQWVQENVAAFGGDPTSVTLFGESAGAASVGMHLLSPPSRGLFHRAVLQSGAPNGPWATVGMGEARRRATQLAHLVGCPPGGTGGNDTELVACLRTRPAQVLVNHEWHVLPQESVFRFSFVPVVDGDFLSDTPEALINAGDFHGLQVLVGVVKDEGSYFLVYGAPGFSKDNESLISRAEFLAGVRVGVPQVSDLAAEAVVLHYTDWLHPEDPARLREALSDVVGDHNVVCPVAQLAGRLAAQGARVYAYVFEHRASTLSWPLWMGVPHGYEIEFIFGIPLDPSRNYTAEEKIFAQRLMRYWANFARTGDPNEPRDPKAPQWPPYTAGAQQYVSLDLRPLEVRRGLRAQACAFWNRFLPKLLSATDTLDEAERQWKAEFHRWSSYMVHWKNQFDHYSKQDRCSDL
hBChE, sequence (P06276 29-602): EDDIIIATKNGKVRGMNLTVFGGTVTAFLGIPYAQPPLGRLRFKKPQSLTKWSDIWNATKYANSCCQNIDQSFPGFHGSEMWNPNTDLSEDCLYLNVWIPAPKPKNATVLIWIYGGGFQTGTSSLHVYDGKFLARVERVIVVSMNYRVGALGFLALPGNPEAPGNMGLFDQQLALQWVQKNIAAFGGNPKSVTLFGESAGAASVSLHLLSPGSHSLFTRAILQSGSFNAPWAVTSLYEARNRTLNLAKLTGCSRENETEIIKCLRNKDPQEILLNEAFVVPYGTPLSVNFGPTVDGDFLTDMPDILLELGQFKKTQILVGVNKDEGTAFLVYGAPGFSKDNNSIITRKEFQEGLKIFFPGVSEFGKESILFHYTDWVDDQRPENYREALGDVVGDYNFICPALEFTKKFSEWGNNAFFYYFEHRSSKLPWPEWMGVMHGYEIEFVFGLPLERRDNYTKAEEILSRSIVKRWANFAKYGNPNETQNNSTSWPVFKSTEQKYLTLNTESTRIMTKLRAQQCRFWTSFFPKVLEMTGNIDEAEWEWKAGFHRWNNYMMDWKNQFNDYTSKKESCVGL

Row | SMILES | inhibition of hAChE (in words) (hAChE) | inhibition of hBChE (in words) (hBChE) | intracellular inhibition of hiCE (in words) (hiCE) | Ki (hBChE) [µM]
1 | C[C@H]1COC2=C1C(=O)C(=O)c1c2ccc2c1CCCC2(C)C [compound 24, 1,2,6,7,8,9-hexahydro-1,6,6-trimethyl-(1R)-phenanthro [1,2-b] furan-10,11-dione] | modest activity | not BChE |  | 
2 | Cc1c(S(=O)(=O)[O-])oc2c1C(=O)C(=O)c1c-2ccc2c1CCCC2(C)C.[Na+] [compound 25, 6,7,8,9,10,11-hexahydro-1,6,6-trimethyl-10,11-dioxo-phenanthro[1,2-b] furan-2-sulfonic acid, sodium salt] |  |  | failed to inhibit | 
3 | Cc1coc2c1C(=O)C(=O)c1c-2ccc2c1CCCC2(C)C [compound 7, 1,6,6-trimethyl-6,7,8,9-tetrahydrophenanthro[1,2-b] furan-10,11-dione] | did not inhibit | did not inhibit |  | > 100
4 | Cc1coc2c1C(=O)C(=O)c1c-2ccc2c(C)cccc12 [compound 21, 1,6-dimethyl-phenanthro [1,2-b] furan-10,11-dione] |  |  |  | > 100
5 | Cc1cccc2c3c(ccc12)C1=C(C(=O)C3=O)[C@@H](C)CO1 [compound 22, 1,2-dihydro-1,6-dimethyl-(1R)-phenanthro [1,2-b] uran-10,11-dione] | modest activity | not BChE |  | > 100
